# Test results from patent US20250163104A1, “MACROCYCLIC IMMUNOMODULATORS” (priority 2021, published 2025).
# Where a SMILES comes first, the peptide text is derived from it. Bridges are numbered along the chain shown (N, C = ends). [ ]: non-standard residue; d: D form. The star is where a group is joined. Ala(morpholin-4-yl) = N[C@@H](CN1CCOCC1)C(=O)O; Phe(4-COOH) = N[C@@H](Cc1ccc(C(=O)O)cc1)C(=O)O; Bip = N[C@@H](Cc1ccc(-c2ccccc2)cc1)C(=O)O; Phe(3-Me) = Cc1cccc(C[C@H](N)C(=O)O)c1; Cha = N[C@@H](CC1CCCCC1)C(=O)O; Carboxymethyl = O=C(O)C*; Nle = CCCC[C@H](N)C(=O)O; Orn = NCCC[C@H](N)C(=O)O; Pra = C#CC[C@H](N)C(=O)O; Dab = NCC[C@H](N)C(=O)O; Nva = CCC[C@H](N)C(=O)O; Propargyl = C#CC*
# Biological target: T1, human PD-1 / PD-L1-Ig binding on Jurkat cell line over-expressing human PD-1 (Jurkat-PD-1) (Homo sapiens, UniProt Q15116)
# T1 construct: expressed in transfected cells; host or cells: Jurkat
# T1 sequence (Q15116 25-288): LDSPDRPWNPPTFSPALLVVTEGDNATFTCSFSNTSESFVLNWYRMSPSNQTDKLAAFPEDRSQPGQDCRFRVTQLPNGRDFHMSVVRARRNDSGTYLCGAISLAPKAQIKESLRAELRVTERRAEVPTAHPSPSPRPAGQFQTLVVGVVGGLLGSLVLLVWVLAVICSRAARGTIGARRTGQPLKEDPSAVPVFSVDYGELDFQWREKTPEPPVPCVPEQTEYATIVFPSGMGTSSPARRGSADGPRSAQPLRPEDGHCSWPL
# Experiment: Jurkat-PD-1 Cell Binding High-Content Screening Assay (CBA)
# Type: cell-based
# Conditions: Jurkat-PD-1 cells, PE-labeled PD-L1-Ig 20 nM final; read-out: Jurkat HPD1_PDL1 IC50
# How it was run: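 Jurkat cells over-expressing human PD-1, in DMEM/10% FCS, pre-incubated with compound 2 h at 37° C. PE-labeled human PD-L1-Ig (20 nM final) added for 1 h; cells fixed in paraformaldehyde with Hoechst 33342 nuclear stain, washed, and bound fluorescence quantified by high-content imaging.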
row,SMILES,IC50 [nM]
1,C#CCOc1ccc(C[C@@H]2NC(=O)[C@H](Cc3cccc(C)c3)NC(=O)[C@H](CC(=O)O)NC(=O)[C@H](Cc3ccc(C(=O)O)cc3)NC(=O)[C@H](CCC)NC(=O)CSC[C@@H](C(=O)N[C@@H](CCN)C(N)=O)NC(=O)[C@H](CCC(=O)O)NC(=O)[C@H](C(C)C)NC(=O)[C@H](CC3CCCCC3)NC(=O)[C@H](CCN)NC(=O)[C@@H](CC(C)C)NC(=O)[C@H](CCCN)NC(=O)[C@H](Cc3ccc(C(=O)O)cc3)NC(=O)[C@H](Cc3ccc(-c4ccccc4)cc3)NC2=O)cc1 [Compound 1830] ({CH2CO}-[Nva][Phe(4-COOH)]D[Phe(3-Me)]Y(Propargyl)[Bip][Phe(4-COOH)][Orn][dL][Dab][Cha]VEC[Dab]-NH2; thioether N-14),3.6
2,C#CCOc1ccc(C[C@@H]2NC(=O)[C@H](Cc3cccc(C)c3)NC(=O)[C@H](CC(=O)O)NC(=O)[C@H](Cc3ccc(OCC(=O)O)cc3)NC(=O)[C@H](CCC)NC(=O)CSC[C@@H](C(=O)N[C@@H](CCN)C(N)=O)NC(=O)[C@H](CCC(=O)O)NC(=O)[C@H](C(C)C)NC(=O)[C@H](CC3CCCCC3)NC(=O)[C@H](CCN)NC(=O)[C@@H](CC(C)C)NC(=O)[C@H](CCCN)NC(=O)[C@H](Cc3ccc(OCC(=O)O)cc3)NC(=O)[C@H](Cc3ccc(-c4ccccc4)cc3)NC2=O)cc1 [Compound 1832] ({CH2CO}-[Nva]Y(Carboxymethyl)D[Phe(3-Me)]Y(Propargyl)[Bip]Y(Carboxymethyl)[Orn][dL][Dab][Cha]VEC[Dab]-NH2; thioether N-14),2.6
3,C#CCOc1ccc(C[C@@H]2NC(=O)[C@H](Cc3ccc(-c4ccccc4)cc3)NC(=O)[C@H](Cc3ccc(C(=O)O)cc3)NC(=O)[C@H](Cc3cccc(C)c3)NC(=O)[C@H](CC(=O)O)NC(=O)[C@H](Cc3ccc(C(=O)O)cc3)NC(=O)[C@H](CCCC)NC(=O)CSC[C@@H](C(=O)N[C@@H](CCN)C(N)=O)NC(=O)[C@H](CCC(=O)O)NC(=O)[C@H](C(C)C)NC(=O)[C@H](CC3CCCCC3)NC(=O)[C@H](CCN)NC(=O)[C@@H](CC(C)C)NC(=O)[C@H](CCCN)NC2=O)cc1 [Compound 1835] ({CH2CO}-[Nle][Phe(4-COOH)]D[Phe(3-Me)][Phe(4-COOH)][Bip]Y(Propargyl)[Orn][dL][Dab][Cha]VEC[Dab]-NH2; thioether N-14),6.4
4,C#CCOc1ccc(C[C@@H]2NC(=O)[C@H](Cc3ccc(-c4ccccc4)cc3)NC(=O)[C@H](Cc3ccc(OCC(=O)O)cc3)NC(=O)[C@H](Cc3cccc(C)c3)NC(=O)[C@H](CC(=O)O)NC(=O)[C@H](Cc3ccc(OCC(=O)O)cc3)NC(=O)[C@H]([C@@H](C)O)NC(=O)CSC[C@@H](C(=O)N[C@@H](CCN)C(N)=O)NC(=O)[C@H](CCC(=O)O)NC(=O)[C@H](C(C)C)NC(=O)[C@H](CC3CCCCC3)NC(=O)[C@H](CCN)NC(=O)[C@@H](CC(C)C)NC(=O)[C@H](CCCN)NC2=O)cc1 [Compound 1836] ({CH2CO}-TY(Carboxymethyl)D[Phe(3-Me)]Y(Carboxymethyl)[Bip]Y(Propargyl)[Orn][dL][Dab][Cha]VEC[Dab]-NH2; thioether N-14),7.2
5,C#CCOc1ccc(C[C@@H]2NC(=O)[C@H](Cc3ccc(-c4ccccc4)cc3)NC(=O)[C@H](Cc3ccc(OCC(=O)O)cc3)NC(=O)[C@H](Cc3cccc(C)c3)NC(=O)[C@H](CC(=O)O)NC(=O)[C@H](Cc3ccc(OCC(=O)O)cc3)NC(=O)[C@H](CCCC)NC(=O)CSC[C@@H](C(=O)N[C@@H](CCN)C(N)=O)NC(=O)[C@H](CCC(=O)O)NC(=O)[C@H](C(C)C)NC(=O)[C@H](CC3CCCCC3)NC(=O)[C@H](CCN)NC(=O)[C@@H](CC(C)C)NC(=O)[C@H](CCCN)NC2=O)cc1 [Compound 1838] ({CH2CO}-[Nle]Y(Carboxymethyl)D[Phe(3-Me)]Y(Carboxymethyl)[Bip]Y(Propargyl)[Orn][dL][Dab][Cha]VEC[Dab]-NH2; thioether N-14),7.6

# The remaining lines, values ahead:
row,IC50 [nM],SMILES
1,4,C#CC[C@H](NC(=O)[C@H](CCN)NC(=O)[C@@H]1CSCC(=O)N[C@@H](CCC)C(=O)N[C@@H](Cc2ccc(OCC(=O)O)cc2)C(=O)N[C@@H](CC(=O)O)C(=O)N[C@@H](Cc2cccc(C)c2)C(=O)N[C@@H](Cc2ccc(OCC(=O)O)cc2)C(=O)N[C@@H](Cc2ccc(-c3ccccc3)cc2)C(=O)N[C@@H](Cc2ccc(OCC(=O)O)cc2)C(=O)N[C@@H](CCCN)C(=O)N[C@H](CC(C)C)C(=O)N[C@@H](CCN)C(=O)N[C@@H](CC2CCCCC2)C(=O)N[C@@H](C(C)C)C(=O)N[C@@H](CCC(=O)O)C(=O)N1)C(=O)O [Compound 1826] ({CH2CO}-[Nva]Y(Carboxymethyl)D[Phe(3-Me)]Y(Carboxymethyl)[Bip]Y(Carboxymethyl)[Orn][dL][Dab][Cha]VEC[Dab][Pra]-OH; thioether N-14)
2,9.4,C#CC[C@H](NC(=O)[C@H](CCN)NC(=O)[C@@H]1CSCC(=O)N[C@@H](CN2CCOCC2)C(=O)N[C@@H](Cc2ccc(OCC(=O)O)cc2)C(=O)N[C@@H](CC(=O)O)C(=O)N[C@@H](Cc2cccc(C)c2)C(=O)N[C@@H](Cc2ccc(OCC(=O)O)cc2)C(=O)N[C@@H](Cc2ccc(-c3ccccc3)cc2)C(=O)N[C@@H](Cc2ccc(OCC(=O)O)cc2)C(=O)N[C@@H](CCCN)C(=O)N[C@H](CC(C)C)C(=O)N[C@@H](CCN)C(=O)N[C@@H](CC2CCCCC2)C(=O)N[C@@H](C(C)C)C(=O)N[C@@H](CCC(=O)O)C(=O)N1)C(=O)O [Compound 1827] ({CH2CO}-[Ala(morpholin-4-yl)]Y(Carboxymethyl)D[Phe(3-Me)]Y(Carboxymethyl)[Bip]Y(Carboxymethyl)[Orn][dL][Dab][Cha]VEC[Dab][Pra]-OH; thioether N-14)
3,6.9,C#CCOc1ccc(C[C@@H]2NC(=O)[C@H](Cc3ccc(-c4ccccc4)cc3)NC(=O)[C@H](Cc3ccc(C(=O)O)cc3)NC(=O)[C@H](Cc3cccc(C)c3)NC(=O)[C@H](CC(=O)O)NC(=O)[C@H](Cc3ccc(C(=O)O)cc3)NC(=O)[C@H]([C@@H](C)O)NC(=O)CSC[C@@H](C(=O)N[C@@H](CCN)C(N)=O)NC(=O)[C@H](CCC(=O)O)NC(=O)[C@H](C(C)C)NC(=O)[C@H](CC3CCCCC3)NC(=O)[C@H](CCN)NC(=O)[C@@H](CC(C)C)NC(=O)[C@H](CCCN)NC2=O)cc1 [Compound 1828] ({CH2CO}-T[Phe(4-COOH)]D[Phe(3-Me)][Phe(4-COOH)][Bip]Y(Propargyl)[Orn][dL][Dab][Cha]VEC[Dab]-NH2; thioether N-14)
4,2.4,C#CCOc1ccc(C[C@@H]2NC(=O)[C@H](Cc3cccc(C)c3)NC(=O)[C@H](CC(=O)O)NC(=O)[C@H](Cc3ccc(OCC(=O)O)cc3)NC(=O)[C@H]([C@@H](C)O)NC(=O)CSC[C@@H](C(=O)N[C@@H](CCN)C(N)=O)NC(=O)[C@H](CCC(=O)O)NC(=O)[C@H](C(C)C)NC(=O)[C@H](CC3CCCCC3)NC(=O)[C@H](CCN)NC(=O)[C@@H](CC(C)C)NC(=O)[C@H](CCCN)NC(=O)[C@H](Cc3ccc(OCC(=O)O)cc3)NC(=O)[C@H](Cc3ccc(-c4ccccc4)cc3)NC2=O)cc1 [Compound 1829] ({CH2CO}-TY(Carboxymethyl)D[Phe(3-Me)]Y(Propargyl)[Bip]Y(Carboxymethyl)[Orn][dL][Dab][Cha]VEC[Dab]-NH2; thioether N-14)
5,4.8,C#CCOc1ccc(C[C@@H]2NC(=O)[C@H](Cc3ccc(-c4ccccc4)cc3)NC(=O)[C@H](Cc3ccc(C(=O)O)cc3)NC(=O)[C@H](Cc3cccc(C)c3)NC(=O)[C@H](CC(=O)O)NC(=O)[C@H](Cc3ccc(C(=O)O)cc3)NC(=O)[C@H](CCC)NC(=O)CSC[C@@H](C(=O)N[C@@H](CCN)C(N)=O)NC(=O)[C@H](CCC(=O)O)NC(=O)[C@H](C(C)C)NC(=O)[C@H](CC3CCCCC3)NC(=O)[C@H](CCN)NC(=O)[C@@H](CC(C)C)NC(=O)[C@H](CCCN)NC2=O)cc1 [Compound 1831] ({CH2CO}-[Nva][Phe(4-COOH)]D[Phe(3-Me)][Phe(4-COOH)][Bip]Y(Propargyl)[Orn][dL][Dab][Cha]VEC[Dab]-NH2; thioether N-14)
6,1.5,C#CCOc1ccc(C[C@@H]2NC(=O)[C@H](Cc3cccc(C)c3)NC(=O)[C@H](CC(=O)O)NC(=O)[C@H](Cc3ccc(OCC(=O)O)cc3)NC(=O)[C@H](CCCC)NC(=O)CSC[C@@H](C(=O)N[C@@H](CCN)C(N)=O)NC(=O)[C@H](CCC(=O)O)NC(=O)[C@H](C(C)C)NC(=O)[C@H](CC3CCCCC3)NC(=O)[C@H](CCN)NC(=O)[C@@H](CC(C)C)NC(=O)[C@H](CCCN)NC(=O)[C@H](Cc3ccc(OCC(=O)O)cc3)NC(=O)[C@H](Cc3ccc(-c4ccccc4)cc3)NC2=O)cc1 [Compound 1833] ({CH2CO}-[Nle]Y(Carboxymethyl)D[Phe(3-Me)]Y(Propargyl)[Bip]Y(Carboxymethyl)[Orn][dL][Dab][Cha]VEC[Dab]-NH2; thioether N-14)
7,3.3,C#CCOc1ccc(C[C@@H]2NC(=O)[C@H](Cc3cccc(C)c3)NC(=O)[C@H](CC(=O)O)NC(=O)[C@H](Cc3ccc(OCC(=O)O)cc3)NC(=O)[C@H](Cc3ccc(OCC(=O)O)cc3)NC(=O)CSC[C@@H](C(=O)N[C@@H](CCN)C(N)=O)NC(=O)[C@H](CCC(=O)O)NC(=O)[C@H](C(C)C)NC(=O)[C@H](CC3CCCCC3)NC(=O)[C@H](CCN)NC(=O)[C@@H](CC(C)C)NC(=O)[C@H](CCCN)NC(=O)[C@H](Cc3ccc(OCC(=O)O)cc3)NC(=O)[C@H](Cc3ccc(-c4ccccc4)cc3)NC2=O)cc1 [Compound 1834] ({CH2CO}-Y(Carboxymethyl)Y(Carboxymethyl)D[Phe(3-Me)]Y(Propargyl)[Bip]Y(Carboxymethyl)[Orn][dL][Dab][Cha]VEC[Dab]-NH2; thioether N-14)
8,8.3,C#CCOc1ccc(C[C@@H]2NC(=O)[C@H](Cc3ccc(-c4ccccc4)cc3)NC(=O)[C@H](Cc3ccc(OCC(=O)O)cc3)NC(=O)[C@H](Cc3cccc(C)c3)NC(=O)[C@H](CC(=O)O)NC(=O)[C@H](Cc3ccc(OCC(=O)O)cc3)NC(=O)[C@H](CCC)NC(=O)CSC[C@@H](C(=O)N[C@@H](CCN)C(N)=O)NC(=O)[C@H](CCC(=O)O)NC(=O)[C@H](C(C)C)NC(=O)[C@H](CC3CCCCC3)NC(=O)[C@H](CCN)NC(=O)[C@@H](CC(C)C)NC(=O)[C@H](CCCN)NC2=O)cc1 [Compound 1837] ({CH2CO}-[Nva]Y(Carboxymethyl)D[Phe(3-Me)]Y(Carboxymethyl)[Bip]Y(Propargyl)[Orn][dL][Dab][Cha]VEC[Dab]-NH2; thioether N-14)
